# Results from US11753445B2, “Therapeutic peptides” (COHBAR, INC., priority 2016, dated 2023).
# Ends that are not written are not given here. * marks the point of attachment. Biotin = O=C1N[C@H]2[C@H](CS[C@H]2CCCCC(=O)*)N1
# Tests used:
# [1] = test system: Human Primary Adipocytes; assay: Free fatty acid levels in cultured human primary adipocytes, forskolin stimulated (Example 5); assay type: cell-based; details: test peptides 25 μM; forskolin 1 μM
# Procedure: Human primary adipocytes were seeded at 5,000-100,000 cells per well on 96-well, 48-well, or 24-well plate in Pre-adipocyte Medium (Zen-Bio, Durham, N.C.) and grown to confluence at 37° C. in a humidified atmosphere of 5% CO2/95% air. Two days after confluence, cells were placed in Adipocyte Differentiation Medium (Zen-Bio, Durham, N.C.) and cultured for three additional days at 37° C. in a humidified atmosphere of 5% CO2/95% air. The culture media was then replaced with Adipocyte Maintenance Medium (Zen-Bio) and the cells were maintained for an additional 11-21 days at 37° C. in a humidified atmosphere of 5% CO2/95% air with partial medium replacement every other day. Following 14-24 days of differentiation, test peptides were added at a final concentration of 25 μM and incubated for 18-20 hours in Adipocyte Maintenance Medium at 37° C. in a humidified atmosphere of 5% CO2/95%. After 18-20 hours, the media was exchanged with fresh Adipocyte Maintenance Medium containing test peptides and incubated for 1 h at 37° C. in a humidified atmosphere of 5% CO2/95%. After 1 h media was exchanged with Assay Buffer (Zen-Bio) containing forskolin (1 μM) (added to all samples except untreated controls) and test peptides. Cells were incubated for a further 3 hours at 37° C. in a humidified atmosphere of 5% CO2/95%. Free fatty acid concentrations in the media were determined using a Free Fatty Acid Assay Kit (Zen-Bio) according to the manufacturer's instructions using a plate reader (540 nm). Absorbance values were corrected for untreated background and expressed relative to forskolin treated cells. Treatment with forskolin (1 μM) alone was used as the free fatty acid level stimulatory control. The relative standard deviation of the forskolin control was <20%. […] Free fatty acid levels for insulin (100 nM) treatment were <8% of the forskolin control value.
# [2] = test system: Human Primary Adipocytes; assay: Free fatty acid levels in cultured human primary adipocytes, isoproterenol stimulated (Example 4); assay type: cell-based; details: test peptides 25 μM; isoproterenol 1 nM
# Procedure: Human primary adipocytes were seeded at 5,000-100,000 cells per well on 96-well, 48-well, or 24-well plates in Pre-adipocyte Medium (Zen-Bio, Durham, N.C.) and grown to confluence at 37° C. in a humidified atmosphere of 5% CO2/95% air. Two days after confluence, cells were placed in Adipocyte Differentiation Medium (Zen-Bio, Durham, N.C.) and cultured for three additional days at 37° C. in a humidified atmosphere of 5% CO2/95% air. The culture media was then replaced with Adipocyte Maintenance Medium (Zen-Bio) and the cells were maintained for an additional 11-21 days at 37° C. in a humidified atmosphere of 5% CO2/95% air with partial medium replacement every other day. Following 14-24 days of differentiation, test peptides were added at a final concentration of 25 μM and incubated for 18-20 hours in Adipocyte Maintenance Medium at 37° C. in a humidified atmosphere of 5% CO2/95%. After 18-20 hours, the media was exchanged with fresh Adipocyte Maintenance Medium containing test peptides and incubated for 1 h at 37° C. in a humidified atmosphere of 5% CO2/95%. After 1 h media was exchanged with Assay Buffer (Zen-Bio) containing isoproterenol (1 nM) (added to all samples except untreated controls) and test peptides. Cells were incubated for a further 3 hours at 37° C. in a humidified atmosphere of 5% CO2/95%. Free fatty acid concentrations in the media were determined using a Free Fatty Acid Assay Kit (Zen-Bio) according to the manufacturer's instructions using a plate reader (540 nm). Absorbance values were corrected for untreated background and expressed relative to isoproterenol treated cells. Treatment with isoproterenol (1 nM) alone was used as the free fatty acid level stimulatory control. The relative standard deviation of the isoproterenol control was <14%. […] Free fatty acid levels for insulin (100 nM) treatment were <5% of the isoproterenol control value.
# [3] = test system: Diet Induced Obese (DIO) mice; assay: Body weight, blood glucose and fat mass in Diet Induced Obese mice, 10 days (Example 6); assay type: in vivo, Male C57BL/6 mice; details: male DIO mice; 10 days twice daily intraperitoneal 15 mg/kg; N = 8; mean
# Method in brief: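 Male DIO mice (n=8/group), randomized by blood glucose and body weight, dosed 15 mg/kg/dose once or twice daily s.c. or i.p. for 10 days vs vehicle. Body weight, blood glucose and food intake monitored; fat vs lean mass by quantitative whole-body NMR before and after dosing.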
# [4] = test system: 3T3-L1 Adipocytes; assay: Free fatty acid levels in cultured mouse 3T3-L1 adipocytes, isoproterenol stimulated (Example 2); assay type: cell-based; details: test peptides 25 μM; isoproterenol 1 nM
# Method in brief: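 Release of free fatty acids, read at 540 nm, was stimulated with 1 nM isoproterenol for 3 h in mouse 3T3-L1 adipocytes (12–17 days of differentiation). Cells were pre-exposed to 25 μM peptide for 18–20 h plus 1 h, with peptide kept in during stimulation. Values are background-subtracted and normalised to isoproterenol alone.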
# [5] = Stability in mouse plasma, peptides 10 uM (Example 15); assay type: in vitro ADME; details: mouse plasma 37° C., peptide 10 uM
# Procedure: (§1) Peptides (10 uM) were incubated in pooled mouse plasma at 37° C. and samples were removed and immediately analyzed for the concentration of intact peptide by LC/MS/MS over the course of 3 hours. The percent of peptide remaining in plasma at each time point was calculated relative to the initial peak area (Table 13).
# [6] = Stability in mouse plasma, peptides 100 uM (Example 14); assay type: in vitro ADME; details: mouse plasma 37° C., peptide 100 uM; for remaining at 0.25 h, 100 uM / remaining at 0.5 h, 100 uM / remaining at 1 h, 100 uM / remaining at 2 h, 100 uM / remaining at 3 h, 100 uM: pooled mouse plasma; for remaining at 0.25 h, 100 uM: 15 min, read-out: % Remaining at Each Time Point: 15 min; for remaining at 0.5 h, 100 uM: 30 min, read-out: % Remaining at Each Time Point: 30 min; for remaining at 1 h, 100 uM: 60 min, read-out: % Remaining at Each Time Point: 60 min; for remaining at 2 h, 100 uM: 120 min, read-out: % Remaining at Each Time Point: 120 min; for remaining at 3 h, 100 uM: 180 min, read-out: % Remaining at Each Time Point: 180 min
# Procedure: as §1, with “(100” for “(10”, “12).” for “13).”
# [7] = test system: 3T3-L1 Adipocytes; assay: Free fatty acid levels in cultured mouse 3T3-L1 adipocytes, forskolin stimulated (Example 3); assay type: cell-based; details: test peptides 25 μM; forskolin 1 μM
# Procedure: Mouse 3T3-L1 cells were seeded at 1,000-20,000 cells per well on 96-well, 48-well, or 24-well plates in Pre-adipocyte Medium (Zen-Bio, Durham, N.C.) and grown to confluence at 37° C. in a humidified atmosphere of 5% CO2/95% air. Two days after confluence, cells were placed in Adipocyte Differentiation Medium (Zen-Bio, Durham, N.C.) and cultured for three additional days at 37° C. in a humidified atmosphere of 5% CO2/95% air. The culture media was then replaced with Adipocyte Maintenance Medium (Zen-Bio) and the cells were maintained for an additional 9-14 days at 37° C. in a humidified atmosphere of 5% CO2/95% air with partial medium replacement every other day. Following 12-17 days of differentiation, test peptides were added at a final concentration of 25 μM and incubated for 18-20 hours in Adipocyte Maintenance Medium at 37° C. in a humidified atmosphere of 5% CO2/95%. After 18-20 hours, the media was exchanged with fresh Adipocyte Maintenance Medium containing test peptides and incubated for 1 h at 37° C. in a humidified atmosphere of 5% CO2/95%. After 1 h media was exchanged with Assay Buffer (Zen-Bio) containing forskolin (1 μM) (added to all samples except untreated controls) and test peptides. Cells were incubated for a further 3 hours at 37° C. in a humidified atmosphere of 5% CO2/95%. Free fatty acid concentrations in the media were determined using a Free Fatty Acid Assay Kit (Zen-Bio) according to the manufacturer's instructions using a plate reader (540 nm). Absorbance values were corrected for untreated background and expressed relative to forskolin treated cells. Treatment with forskolin (1 μM) alone was used as the free fatty acid level stimulatory control. The relative standard deviation of the forskolin control was <10%. […] Free fatty acid levels for insulin (100 nM) treatment were <9% of the forskolin control value.
# [8] = test system: 3T3-L1 Adipocytes; assay: Free fatty acid levels in cultured mouse 3T3-L1 adipocytes, isoproterenol stimulated (Example 17); assay type: cell-based; details: isoproterenol 1 nM
# Procedure: Mouse 3T3-L1 cells were seeded at a density between 1,000-20,000 cells per well on 96-well, 48-well, or 24-well plates in Pre-adipocyte Medium (Zen-Bio, Durham, N.C.) and grown to confluence at 37° C. in a humidified atmosphere of 5% CO2/95% air. Two days after confluence, cells were placed in Adipocyte Differentiation Medium (Zen-Bio, Durham, N.C.) and cultured for three additional days at 37° C. in a humidified atmosphere of 5% CO2/95% air. The culture media was then replaced with Adipocyte Maintenance Medium (Zen-Bio) and the cells were maintained for an additional 9-14 days at 37° C. in a humidified atmosphere of 5% CO2/95% air with partial medium replacement every other day. Following 12-17 days of differentiation, test peptides were added at a final concentration of 25-50 μM and incubated for 18-20 hours in Adipocyte Maintenance Medium at 37° C. in a humidified atmosphere of 5% CO2/95%. After the media incubation, media was removed and exchanged with Assay Buffer (Zen-Bio) containing isoproterenol (1 nM) (added to all samples except untreated controls) and the test peptides. Cells were incubated for a further 3 hours at 37° C. in a humidified atmosphere of 5% CO2/95%. Free fatty acid concentrations in the media were determined using a Free Fatty Acid Assay Kit (Zen-Bio) according to the manufacturer's instructions using a plate reader (540 nm).
# Absorbance values were corrected for untreated background and expressed relative to isoproterenol treated cells. Treatment with isoproterenol (1 nM) alone was used as the free fatty acid level stimulatory control. The relative standard deviation of the isoproterenol control was <10%. […] Free fatty acid levels for insulin (100 nM) treatment were <5% of the isoproterenol control value.
substance,measurement,setting,value
H-MRWQEMGYIFYPRKL-OH [compound 45],Free Fatty Acid Levels in Human Primary Adipocytes Expressed as a Percent of Forskolin Control: Percent of Control Value,[1],125%
same,Free Fatty Acid Levels in Human Primary Adipocytes Expressed as a Percent of Isoproterenol Control: Percent of Control Value,[2],22.2%
same,Difference from Vehicle Control: Decrease from Baseline in Blood Glucose,[3],6.00 mg/dL
same,Difference from Vehicle Control: Decrease from Baseline in Body Weight (%),[3],−2.01%
same,Difference from Vehicle Control: Decrease from Baseline in Fat Mass,[3],-0.69 g
same,Free Fatty Acid Levels in 3T3-L1 Adipocytes Expressed as a Percent of Isoproterenol Control: Percent of Control Value,[4],37.9%
same,% Remaining at Each Time Point: 0 min,[5]; 0 min,100%
same,"remaining at 0.25 h, 10 uM","[5]; pooled mouse plasma, 15 min, read-out: % Remaining at Each Time Point: 15 min",66.5%
same,"remaining at 0.5 h, 10 uM","[5]; pooled mouse plasma, 30 min, read-out: % Remaining at Each Time Point: 30 min",33%
same,"remaining at 1 h, 10 uM","[5]; pooled mouse plasma, 60 min, read-out: % Remaining at Each Time Point: 60 min",7.31%
same,"remaining at 2 h, 10 uM","[5]; pooled mouse plasma, 120 min, read-out: % Remaining at Each Time Point: 120 min",0%
same,"remaining at 3 h, 10 uM","[5]; pooled mouse plasma, 180 min, read-out: % Remaining at Each Time Point: 180 min",0%
H-MRAQEMGYIFYPRKLR-OH [compound 8],Free Fatty Acid Levels in Human Primary Adipocytes Expressed as a Percent of Forskolin Control: Percent of Control Value,[1],107%
same,% Remaining at Each Time Point: 0 min,[6],100%
same,"remaining at 0.25 h, 100 uM",[6],13.2%
same,"remaining at 0.5 h, 100 uM",[6],11.2%
same,"remaining at 1 h, 100 uM",[6],10.1%
same,"remaining at 2 h, 100 uM",[6],11.7%
same,"remaining at 3 h, 100 uM",[6],9.81%
same,Free Fatty Acid Levels in Human Primary Adipocytes Expressed as a Percent of Isoproterenol Control: Percent of Control Value,[2],22.2%
same,Difference from Vehicle Control: Decrease from Baseline in Blood Glucose,[3],-20.0 mg/dL
same,Difference from Vehicle Control: Decrease from Baseline in Body Weight (%),[3],−0.24%
same,Difference from Vehicle Control: Decrease from Baseline in Fat Mass,[3],-0.20 g
H-QEMGYIFYPRKLR-OH [compound 40],Free Fatty Acid Levels in Human Primary Adipocytes Expressed as a Percent of Forskolin Control: Percent of Control Value,[1],107%
same,Free Fatty Acid Levels in Human Primary Adipocytes Expressed as a Percent of Isoproterenol Control: Percent of Control Value,[2],122%
same,Free Fatty Acid Levels in 3T3-L1 Adipocytes Expressed as a Percent of Forskolin Control: Percent of Control Value,[7],96.1%
same,Free Fatty Acid Levels in 3T3-L1 Adipocytes Expressed as a Percent of Isoproterenol Control: Percent of Control Value,[4],83.1%
Ac-YIFYPRKLR-NH2 [compound 58],Free Fatty Acid Levels in Human Primary Adipocytes Expressed as a Percent of Forskolin Control: Percent of Control Value,[1],134%
same,Free Fatty Acid Levels in Human Primary Adipocytes Expressed as a Percent of Isoproterenol Control: Percent of Control Value,[2],164%
same,Free Fatty Acid Levels in 3T3-L1 Adipocytes Expressed as a Percent of Isoproterenol Control: Percent of Control Value,[4],97.3%
H-MRWQEMGYIFYPRK(Ac)LR-OH [compound 69],Free Fatty Acid Levels in Human Primary Adipocytes Expressed as a Percent of Forskolin Control: Percent of Control Value,[1],119%
same,% Remaining at Each Time Point: 0 min,[6],100%
same,"remaining at 0.25 h, 100 uM",[6],33.1%
same,"remaining at 0.5 h, 100 uM",[6],37.7%
same,"remaining at 1 h, 100 uM",[6],19.3%
same,"remaining at 2 h, 100 uM",[6],5.96%
same,"remaining at 3 h, 100 uM",[6],2.11%
same,Free Fatty Acid Levels in Human Primary Adipocytes Expressed as a Percent of Isoproterenol Control: Percent of Control Value,[2],53.0%
same,Free Fatty Acid Levels in 3T3-L1 Adipocytes Expressed as a Percent of Isoproterenol Control: Percent of Control Value,[4],61.3%
367 (Biotin-KRWQEMNYIFYPR) [compound 367],Free Fatty Acid Levels in 3T3-L1 Adipocytes Expressed as a Percent of Isoproterenol Control: Percent of Control Value,[8]; Peptide Concentration 50 μM,59.0%
H-EMNYIFYP-OH [compound 362],Free Fatty Acid Levels in 3T3-L1 Adipocytes Expressed as a Percent of Isoproterenol Control: Percent of Control Value,[8]; Peptide Concentration 25 μM,92.5%
371 (PEG600-KRWQEMNYIFYP) [compound 371],Free Fatty Acid Levels in 3T3-L1 Adipocytes Expressed as a Percent of Isoproterenol Control: Percent of Control Value,[8]; Peptide Concentration 50 μM,118.0%
